Assay results reported in US20100169988A1, “MEANS AND METHODS FOR ISOLATING AND DETERMINING NOVEL TARGETS FOR THE TREATMENT OF NEURODEGENERATIVE, NEUROLOGICAL OR NEUROPSYCHIATRIC DISORDERS AND COMPOSITIONS COMPRISING THE SAME” (priority 2006, published 2010).

Target: T1, γ-secretase (Homo sapiens, UniProt P49768)
T1 construct: endogenous in cells; host or cells: cells transfected with α-/β-CTF-Citrine constructs
Assay: Subcellular localization of Citrine-labeled α-CTF/β-CTF constructs
Assay type: cell-based
Settings: Hek 293 cells transfected with α-CTF or β-CTF Citrine constructs
Excerpt: In a first step, the CTF constructs alone were transfected, without any additional influence on subcellular localization and an entirely homogeneous distribution of Citrine fluorescence throughout the cell was observed. Like APP, these constructs first require cleavage of the signal peptide by Signal Peptidase. However, these “precleaved” CTFs never require ectodomain-shedding in the conventional sense of α- or β-secretase cleavage, which is time consuming not only because of the cleavage step alone, but because of the protein trafficking required to make APP accessible to the secretases. PS cleavage was therefore assumed to take place much more rapidly than is the case for wtAPP, whereupon the same experiments were performed with γ-secretase inhibitor L-685,458 aiming at prolonging the half-life of the uncleaved CTFs. […] Apart from this stabilization, however, no obvious difference was discerned between the subcellular localization of the two constructs.
Subcellular protein distribution of fluorescently tagged proteins or proteins stained as described supra was analyzed on a Leica TCS/SP2 confocal microscope. Pictures were acquired at a resolution of 1024×1024 using the 63×H2O immersion objective. Typically, 5-8 z-axis sections were recorded across the entire height of embedded cells so that typical section separations were 0.5 μm. […]

Structure (SMILES): CC(C)C[C@H](NC(=O)[C@H](Cc1ccccc1)C[C@@H](O)[C@H](Cc1ccccc1)NC(=O)OC(C)(C)C)C(=O)N[C@@H](Cc1ccccc1)C(N)=O [L-685,458]
- subcellular localization of uncleaved CTF-Citrine: accumulation in ER and Golgi was observed
